Assay results: ChEMBL document CHEMBL1201862, “PubChem BioAssay data set” (2004)
Calls of active or inactive are those of the source.

What was measured:
[1] = molecular target: T1, Probable nicotinate-nucleotide adenylyltransferase (Staphylococcus aureus (strain N315), UniProt P65502); assay type: functional, Staphylococcus aureus subsp. aureus N315; details: read-out: IC50_Mean;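 as to IC50 Mean: confirmatory dose-response retesting of NadD inhibitor hits first found in an ultra-high-throughput screen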
[2] = molecular target: T1, Probable nicotinate-nucleotide adenylyltransferase; assay type: functional, Staphylococcus aureus subsp. aureus N315
[3] = molecular target: T2, DNA repair protein RAD52 homolog (Homo sapiens, UniProt P43351); assay type: functional, biochemical
T2 sequence (P43351 whole entry): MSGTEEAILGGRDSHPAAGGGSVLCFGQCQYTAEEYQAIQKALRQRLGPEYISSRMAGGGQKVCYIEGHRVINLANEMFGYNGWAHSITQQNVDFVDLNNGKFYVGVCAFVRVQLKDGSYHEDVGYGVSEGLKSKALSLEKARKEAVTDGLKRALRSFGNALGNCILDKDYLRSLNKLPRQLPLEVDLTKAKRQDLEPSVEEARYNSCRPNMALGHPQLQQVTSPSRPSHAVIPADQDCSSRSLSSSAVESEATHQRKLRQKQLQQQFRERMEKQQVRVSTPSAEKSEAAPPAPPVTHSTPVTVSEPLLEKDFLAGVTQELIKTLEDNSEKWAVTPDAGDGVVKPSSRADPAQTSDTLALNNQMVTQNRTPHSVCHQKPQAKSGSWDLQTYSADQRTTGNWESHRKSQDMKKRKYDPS

[4] = molecular target: T3, DNA repair and recombination protein RAD54-like (Homo sapiens, UniProt Q92698); experiment: inhibitors of human RAD54 branch migration, confirmation, biochemical, fluorescence, cherry-picked samples, dose series (AID 651657); assay type: functional
T3 sequence (Q92698 whole entry): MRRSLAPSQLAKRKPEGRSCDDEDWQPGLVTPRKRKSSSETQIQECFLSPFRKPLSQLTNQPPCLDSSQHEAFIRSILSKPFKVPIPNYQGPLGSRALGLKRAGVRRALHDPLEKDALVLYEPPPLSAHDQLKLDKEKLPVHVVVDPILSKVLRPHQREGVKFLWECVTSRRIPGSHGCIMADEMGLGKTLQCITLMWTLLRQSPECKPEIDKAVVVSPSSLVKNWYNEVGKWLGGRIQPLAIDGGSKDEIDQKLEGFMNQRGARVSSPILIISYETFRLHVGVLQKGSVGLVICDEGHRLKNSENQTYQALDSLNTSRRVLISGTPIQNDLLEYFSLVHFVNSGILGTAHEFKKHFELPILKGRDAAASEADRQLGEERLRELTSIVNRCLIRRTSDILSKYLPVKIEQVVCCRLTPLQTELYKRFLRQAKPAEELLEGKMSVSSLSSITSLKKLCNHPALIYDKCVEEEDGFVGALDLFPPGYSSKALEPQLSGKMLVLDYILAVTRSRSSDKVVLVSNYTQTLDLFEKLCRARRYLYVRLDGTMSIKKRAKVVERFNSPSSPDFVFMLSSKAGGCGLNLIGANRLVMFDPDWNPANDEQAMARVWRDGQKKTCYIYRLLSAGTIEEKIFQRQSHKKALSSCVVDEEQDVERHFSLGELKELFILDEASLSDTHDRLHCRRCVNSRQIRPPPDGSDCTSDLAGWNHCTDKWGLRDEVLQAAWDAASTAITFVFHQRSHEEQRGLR

Cysteine protease ATG4B = molecular target: T4, Cysteine protease ATG4B (Homo sapiens, UniProt Q9Y4P1); assay type: functional;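 also: Fluorescence-based dose-response confirmation assay measuring inhibition of ATG4B activity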
T4 sequence (Q9Y4P1 whole entry): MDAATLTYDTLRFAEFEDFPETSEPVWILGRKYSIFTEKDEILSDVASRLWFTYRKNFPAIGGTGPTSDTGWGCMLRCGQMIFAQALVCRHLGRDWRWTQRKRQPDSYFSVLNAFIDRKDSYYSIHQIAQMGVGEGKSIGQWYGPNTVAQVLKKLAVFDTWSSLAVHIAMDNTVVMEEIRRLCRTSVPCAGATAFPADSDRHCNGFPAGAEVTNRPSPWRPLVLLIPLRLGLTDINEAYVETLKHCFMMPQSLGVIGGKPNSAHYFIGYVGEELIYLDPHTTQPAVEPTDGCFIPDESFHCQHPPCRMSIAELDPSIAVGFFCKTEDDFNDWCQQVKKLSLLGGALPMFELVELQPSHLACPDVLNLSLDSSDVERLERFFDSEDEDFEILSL

Phospholipase A2 = Phospholipase A2 (Homo sapiens, UniProt P04054); assay type: functional;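 also: confirmatory dose-response counterscreen on phospholipase A2, testing hits that came from an ultra-high-throughput screen for ATG4B inhibitors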
Streptococcus = experiment: Group A Streptococcus viability loss, dose response, counter-screen for streptokinase expression inhibitor project, luminescence, BacTiterGlo (AID 1915); assay type: functional, organism-based;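 also: potency for reduction of bacterial viability or growth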
INS1 = experiment: beta cell apoptosis inhibitors, cytokine rescue, dose response, luminescence, retest (AID 449756); assay type: functional, cell-based; details: Rattus norvegicus;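 also: cell death triggered by IL-1 beta plus TNF-alpha plus IFN-gamma mixture; protective hits raise ATP signal compared with cytokine alone wells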
HEK293 = experiment: inhibitors of LMP1-driven NF-kB reporter, dose response, cell-based, HEK293, luciferase, cherry-pick (AID 588343); assay type: functional; details: Homo sapiens
[5] = test system: Streptococcus sp. 'group A'; experiment: growth inhibition of control SK(-) GAS strain, dose response, counter-screen for streptokinase expression inhibitor project, luminescence, kanamycin, BacTiterGlo, confirmation (AID 1900); assay type: functional, organism-based
BJ [6] = experiment: cytotoxicity toward BJ-TERT fibroblasts, dose response, cell-based, RAS-independent, luminescence (AID 1933); assay type: functional; details: Homo sapiens
[7] = cytotoxicity in HEK-293T cells, dose response, cytotoxicity control for TCR NF-kB inhibitor project, luminescence, T-cell screen hits (AID 489026); assay type: functional, cell-based;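 also: cells exposed to compound about 14 hours before the viability readout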
[8] = cytotoxicity toward DRD oncogenic fibroblasts, dose response, cell-based, non-viral oncogenic, luminescence (AID 1934); assay type: functional; details: Homo sapiens
BJ [9] = experiment: cytotoxicity toward BJ-TERT-LT-ST fibroblasts, dose response, cell-based, RAS-independent, luminescence (AID 1935); assay type: functional; details: Homo sapiens;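 also: BJ fibroblasts immortalized with TERT plus LT and ST oncogenes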
BJ [10] = experiment: cells; assay type: functional, cell-based; details: Homo sapiens
BJ [11] = experiment: cytotoxicity toward Ras-transformed BJeLR fibroblasts, dose response, cell-based, alamar blue fluorescence, cherrypicked samples (AID 2631); assay type: functional; details: Homo sapiens;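 also: confirmatory dose-response assay in RAS-dependent BJ fibroblasts engineered with TERT, LT and ST, with cytotoxicity read by fluorescence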
[12] = molecular target: T5, COUP transcription factor 2 (Homo sapiens, UniProt P24468); experiment: Luminescence-based cell-based high throughput dose response assay to identify inhibitors of COUP-TFII (NR2F2).; assay type: functional;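 also: HEK293 cells transiently cotransfected with COUP-TFII expression vector and reporter; luciferase reporter luminescence driven by COUP-TFII from the pX2-168 reporter plasmid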
T5 sequence (P24468 whole entry): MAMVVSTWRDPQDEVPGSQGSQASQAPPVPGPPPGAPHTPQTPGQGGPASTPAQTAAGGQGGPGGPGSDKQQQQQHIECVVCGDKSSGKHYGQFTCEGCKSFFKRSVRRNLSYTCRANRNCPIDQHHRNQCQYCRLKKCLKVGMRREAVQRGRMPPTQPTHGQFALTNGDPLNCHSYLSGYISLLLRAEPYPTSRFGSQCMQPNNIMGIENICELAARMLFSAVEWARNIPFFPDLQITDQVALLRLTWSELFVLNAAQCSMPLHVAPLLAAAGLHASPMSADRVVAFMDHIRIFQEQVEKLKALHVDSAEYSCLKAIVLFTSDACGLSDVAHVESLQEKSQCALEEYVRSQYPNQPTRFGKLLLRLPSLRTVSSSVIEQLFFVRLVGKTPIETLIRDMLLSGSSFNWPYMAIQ

Protein Wnt-3a = Protein Wnt-3a (Mus musculus, UniProt P27467); experiment: Wnt3a-driven reporter signaling inhibition, dose response, selectivity assay for Gli-SUFU antagonist project, Wnt-LIGHT cells, luminescence (AID 651570); assay type: functional; details: read-out: IC50_Mean;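 also: Wnt-LIGHT reporter cells stimulated with conditioned medium from Wnt3a-producing cells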
[13] = molecular target: ATP-dependent molecular chaperone HSP82 (Candida albicans (strain WO-1) (Yeast), UniProt C4YTQ8); experiment: loss of DOC-induced GRE-beta-galactosidase reporter signal, dose response, Hsp90 inhibitor project, S. cerevisiae, luminescence (AID 2400); assay type: functional, cell-based;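 also: beta-galactosidase luminescence from glucocorticoid response element reporter as proxy for Hsp90 function; inhibitor potency where signal loss means Hsp90 inhibition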
[14] = C. albicans growth with fluconazole, confirmation, fluorescence, retest (AID 2467); assay type: functional, cell-based
[15] = molecular target: T6, Serine/threonine-protein phosphatase (Candida dubliniensis (strain CD36 / CBS 7987 / NCPF 3949 / NRRLY-17841) (Yeast), UniProt B9W6M3); experiment: calcineurin pathway inhibitors in yeast reporter, dose response, S. cerevisiae, CDRE-lacZ, luminescence, secondary (AID 2388); assay type: functional, cell-based;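 also: yeast reporter cells carrying a calcineurin-responsive lacZ construct stimulated with calcium chloride; luminescent beta-galactosidase reporter signal in whole cells rather than isolated phosphatase activity; potency for inhibition where a drop in reporter signal means calcineurin blockade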
T6 sequence (B9W6M3 whole entry): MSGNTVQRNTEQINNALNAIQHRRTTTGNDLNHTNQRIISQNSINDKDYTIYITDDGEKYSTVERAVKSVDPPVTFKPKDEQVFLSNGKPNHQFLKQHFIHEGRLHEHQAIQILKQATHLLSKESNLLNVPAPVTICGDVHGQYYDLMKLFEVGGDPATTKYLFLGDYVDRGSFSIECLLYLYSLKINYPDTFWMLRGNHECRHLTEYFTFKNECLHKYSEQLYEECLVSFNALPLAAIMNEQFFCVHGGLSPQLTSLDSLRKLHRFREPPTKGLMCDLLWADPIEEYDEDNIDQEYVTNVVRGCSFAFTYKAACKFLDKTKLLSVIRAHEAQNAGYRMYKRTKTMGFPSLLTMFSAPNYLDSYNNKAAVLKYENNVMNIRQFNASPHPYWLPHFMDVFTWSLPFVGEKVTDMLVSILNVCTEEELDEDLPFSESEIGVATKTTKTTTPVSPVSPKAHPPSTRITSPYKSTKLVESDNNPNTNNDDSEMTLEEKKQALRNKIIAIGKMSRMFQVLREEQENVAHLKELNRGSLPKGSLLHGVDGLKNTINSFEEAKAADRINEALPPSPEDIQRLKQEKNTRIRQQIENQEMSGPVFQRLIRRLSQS

[16] = NIH-3T3 fibroblast cytotoxicity, dose response, cytotoxicity control, cell-based, fluorescence, Alamar Blue, secondary assay (AID 2327); assay type: functional;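 also: NIH-3T3 mouse fibroblasts cultured with fluconazole at 8 µg/mL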
[17] = Luminescence Cell-Based Dose Confirmation HTS to Identify Inhibitors of Platelet Dense Granule Release. [Related pubchem assays: 1663 (Primary HTS), 1678 (Summary of Project)]; assay type: functional
[18] = molecular target: Luciferin 4-monooxygenase (Photinus pyralis, UniProt P08659); experiment: firefly luciferase enzyme inhibitors, dose response, biochemical, luminescence (AID 1891)
[19] = inhibitors of intracellular T. cruzi replication, confirmation, NIH3T3 host cells, beta-gal luminescence (AID 2044); assay type: functional, cell-based;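 also: intracellular parasites grown in NIH/3T3 mouse fibroblasts as host cells; luminescent beta-galactosidase reporter signal from transgenic T. cruzi replicating inside host cells; inhibitors lower the luminescence signal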
[20] = cytotoxicity toward NIH3T3 fibroblasts, dose response, counter-screen, cell-based, ATP luminescence, mouse fibroblasts (AID 2010); assay type: functional;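 also: cells exposed to compound for about 90 hours before reading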

Phospholipase A2, sequence (P04054 whole entry): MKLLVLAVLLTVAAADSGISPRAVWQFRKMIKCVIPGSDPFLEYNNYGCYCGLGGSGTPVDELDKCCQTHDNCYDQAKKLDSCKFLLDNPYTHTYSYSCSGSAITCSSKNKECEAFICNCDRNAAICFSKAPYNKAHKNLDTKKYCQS
T1 sequence (P65502 whole entry): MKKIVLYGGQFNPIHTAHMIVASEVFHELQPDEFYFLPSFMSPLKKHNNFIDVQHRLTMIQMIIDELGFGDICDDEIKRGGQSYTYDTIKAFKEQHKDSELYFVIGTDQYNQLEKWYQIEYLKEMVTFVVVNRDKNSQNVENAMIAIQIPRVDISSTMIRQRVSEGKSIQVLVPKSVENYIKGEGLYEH
Protein Wnt-3a, sequence (P27467 whole entry): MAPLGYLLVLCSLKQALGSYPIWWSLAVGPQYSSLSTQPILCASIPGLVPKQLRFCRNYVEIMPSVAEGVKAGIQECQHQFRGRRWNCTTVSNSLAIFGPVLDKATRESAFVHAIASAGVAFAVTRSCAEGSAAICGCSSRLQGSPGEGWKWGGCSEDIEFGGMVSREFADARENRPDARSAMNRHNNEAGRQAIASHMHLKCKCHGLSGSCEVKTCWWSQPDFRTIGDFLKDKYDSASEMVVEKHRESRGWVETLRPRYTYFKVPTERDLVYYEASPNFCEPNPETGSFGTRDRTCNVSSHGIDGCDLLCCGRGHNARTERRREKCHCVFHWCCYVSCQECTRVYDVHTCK
ATP-dependent molecular chaperone HSP82, sequence (C4YTQ8 whole entry): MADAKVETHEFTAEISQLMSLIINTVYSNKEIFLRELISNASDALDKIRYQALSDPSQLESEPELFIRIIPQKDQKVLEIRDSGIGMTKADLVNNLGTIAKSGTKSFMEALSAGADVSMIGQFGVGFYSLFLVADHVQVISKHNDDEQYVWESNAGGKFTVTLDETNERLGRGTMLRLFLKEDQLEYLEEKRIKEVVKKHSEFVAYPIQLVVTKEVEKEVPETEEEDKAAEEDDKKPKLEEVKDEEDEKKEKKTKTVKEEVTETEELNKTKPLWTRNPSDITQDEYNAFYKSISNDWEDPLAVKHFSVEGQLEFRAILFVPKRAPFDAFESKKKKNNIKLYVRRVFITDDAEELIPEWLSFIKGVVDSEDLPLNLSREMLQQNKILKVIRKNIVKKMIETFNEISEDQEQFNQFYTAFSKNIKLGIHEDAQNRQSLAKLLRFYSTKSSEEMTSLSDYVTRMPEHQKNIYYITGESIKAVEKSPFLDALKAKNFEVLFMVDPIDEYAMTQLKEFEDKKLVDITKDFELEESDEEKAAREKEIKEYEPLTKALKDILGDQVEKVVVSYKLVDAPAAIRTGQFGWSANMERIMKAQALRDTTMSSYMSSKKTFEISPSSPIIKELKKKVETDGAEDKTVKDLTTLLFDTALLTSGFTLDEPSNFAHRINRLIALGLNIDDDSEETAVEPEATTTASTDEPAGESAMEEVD
Luciferin 4-monooxygenase, sequence (P08659 whole entry): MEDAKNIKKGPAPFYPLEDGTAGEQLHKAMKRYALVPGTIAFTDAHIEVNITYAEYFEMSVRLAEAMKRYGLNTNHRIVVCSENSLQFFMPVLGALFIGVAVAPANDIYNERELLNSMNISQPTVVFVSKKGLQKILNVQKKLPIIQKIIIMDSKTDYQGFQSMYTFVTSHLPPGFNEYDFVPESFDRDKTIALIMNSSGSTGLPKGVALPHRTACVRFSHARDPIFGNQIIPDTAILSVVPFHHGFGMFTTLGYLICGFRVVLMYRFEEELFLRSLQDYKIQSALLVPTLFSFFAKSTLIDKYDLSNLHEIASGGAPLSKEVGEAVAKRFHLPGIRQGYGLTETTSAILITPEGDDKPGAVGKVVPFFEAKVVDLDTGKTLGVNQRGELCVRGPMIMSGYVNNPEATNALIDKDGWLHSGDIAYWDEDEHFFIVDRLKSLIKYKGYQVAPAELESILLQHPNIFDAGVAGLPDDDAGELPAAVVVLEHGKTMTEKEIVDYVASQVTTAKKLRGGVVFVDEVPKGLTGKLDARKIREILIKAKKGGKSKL

## CCOC(=O)c1c(-c2ccccc2Cl)csc1NC(=O)CSc1nc(C)cc(=O)[nH]1
[1]
  IC50: 28.7 µM (active)
[2]
  IC50: 11.6 µM (active)

## COc1ccc(-c2nn(C)c3sc(C(=O)NCCN(C)C)cc23)cc1OC
[3]
  AC50: 2.35 µM (active)
[4]
  AC50: 6.36 µM (active)

## CC1CC(C)CN(C(=O)C2CCN(S(=O)(=O)c3ccc4c(c3)CC(C)N4C(=O)C3CC3)CC2)C1 (stereo not given)
Cysteine protease ATG4B
  IC50: 14.5 µM (active)
Phospholipase A2
  IC50: 7.55 µM (active)

## Cc1cc(N/N=C\c2ccc(Br)cc2)nc(-n2nc(C)cc2C)n1
Streptococcus
  EC50: 3.74 µM (active)
INS1
  AC50: 2.43 µM (active)
HEK293
  AC50: 3.83 µM (active)
[5]
  EC50: 1.01 µM (active)

## CCCc1cc(=O)[nH]c(SCC(=O)N2N=C(c3ccc(Cl)cc3)CC2c2ccco2)n1 (stereo not given)
Cysteine protease ATG4B
  IC50: 20.5 µM (inactive)
[1]
  IC50: 52.9 µM (active)
[2]
  IC50: 9.52 µM (active)
Phospholipase A2
  IC50: 16.6 µM (active)

## COc1cccc(-c2cnc3c(NC(C)=O)cc(-c4cccc(C(=O)NCCN(C)C)c4)cn23)c1
[3]
  AC50: 2.42 µM (active)
[4]
  AC50: 26.7 µM (active)

## C[C@@H]1C=CC(=O)O[C@@H]1c1ccc(Cl)cc1
BJ [6]
  EC50: 21.3 µM (active)
[7]
  IC50: > 80 µM (inactive)
[8]
  EC50: 5.84 µM (active)
BJ [9]
  EC50: 16.7 µM (active)
BJ [10]
  EC50: 23.8 µM (active)
BJ [11]
  EC50: 0.547 µM (active)

## O=C(O)Cc1sc(NC2CCCCC2)nc1-c1ccc(Cl)cc1
Cysteine protease ATG4B
  IC50: 21 µM (inactive)
Phospholipase A2
  IC50: 8.63 µM (active)

## Cc1cccn2c(=O)c3cc(C(=O)NCCN4CCOCC4)c(=N)n(CCCN4CCOCC4)c3nc12
[3]
  AC50: 4.63 µM (active)
[4]
  AC50: 8.19 µM (active)

## Cc1sc2ncnc(NCC3COc4ccccc4O3)c2c1C (stereo not given)
INS1
  AC50: 1.68 µM (active)
HEK293
  AC50: 35.9 µM (active)
[12]
  IC50: 3.38 µM (active)
Protein Wnt-3a
  IC50: 0.441 µM (active)

## CCOC(=O)c1c(-c2ccccc2Cl)cn2ccccc12
[13]
  EC50: 17.4 µM (active)
[14]
  EC50: 3.75 µM (active)
[15]
  EC50: > 180 µM (inactive)
[16]
  EC50: > 160 µM (inactive)

## O=C(COc1ccc(Cl)cc1)Nc1ccc(C(=O)NCc2cccnc2)cc1
BJ [6]
  EC50: > 150 µM (not active)
INS1
  AC50: < 0.195 µM (active)
[8]
  EC50: > 150 µM (inconclusive)
BJ [9]
  EC50: 18.8 µM (inconclusive)
BJ [10]
  EC50: 2.87 µM (active)
BJ [11]
  EC50: 25.6 µM (active)

## COc1cccc(C2c3c(-c4cc(Cl)c(C)cc4O)n[nH]c3C(=O)N2Cc2cccnc2)c1 (stereo not given)
[1]
  IC50: 46 µM (active)
[17]
  EC50: 41.2 µM (active)
[2]
  IC50: 21.5 µM (active)
[18]
  EC50: > 112 µM (not active)

## C[n+]1c2n(c3ccccc31)N=C(c1ccc(-c3ccccc3)cc1)CS2
[19]
  EC50: 0.376 µM (active)
INS1
  AC50: 1.32 µM (active)
[13]
  EC50: > 160 µM (inactive)
[14]
  EC50: 0.452 µM (active)
[12]
  IC50: 5.03 µM (active)
[15]
  EC50: > 180 µM (inactive)
[20]
  EC50: 9.85 µM (active)
[16]
  EC50: > 160 µM (inactive)
Protein Wnt-3a
  IC50: 0.736 µM (active)

## COCCn1c(C)cc(C(=O)COC(=O)C23CC4CC(CC(O)(C4)C2)C3)c1C
HEK293
  AC50: 7.37 µM (active)

## Cc1ccccc1C(=O)c1c[nH]c(C(=O)NCc2ccco2)c1
HEK293
  AC50: 11.2 µM (active)
